Measurements as given in article PMC6143478, “Lipophilic activated ester prodrug approach for drug delivery to the intestinal lymphatic system” (Journal of Controlled Release, 2018).
Where two headings read alike, the source gives them in different places.

Legend:
human chylomicrons (CM) = assay: Ex vivo association with human plasma-derived chylomicrons; assay type: in vitro ADME; details: 1.755 μM, 37 °C, 1 h; in words, relative to parent drug
Description: The protocol for preparation of human plasma-derived CM emulsion was approved by the Faculty of Medicine and Health Sciences Research Ethics Committee, Queens Medical Centre, Nottingham University Hospitals (BT12102015 CBS SoP). Healthy male volunteers of 19–40 years old and with body mass index of 18.5–25.0 were enrolled in the study after providing informed consent. The participants were excluded if any medication was used within one week prior to enrolment. On the morning of the study, participants received a high-fat meal (equivalent to a full English breakfast). Between 3 and 4 h following breakfast, 30 mL of blood was collected using heparinised tubes (Vacutainer® Blood Collection Tubes) and centrifuged (800 g, 10 min, 15 °C) to obtain plasma.
CM separation was performed as previously reported with minor modifications. Briefly, KBr (0.57 g) was mixed with 4 mL of plasma to yield density of 1.1 g/mL. PBS with densities of 1.006, 1.019, and 1.063 g/mL were prepared by adding appropriate amounts of KBr. These PBS of different densities were layered on top of the plasma to build density gradient layers in polyallomer ultracentrifuge tubes. The samples were then centrifuged at 268,350 g for 35 min at 15 °C using an ultracentrifuge (SORVALL® TH-641 Rotor, Thermo Fisher Scientific, UK). Following ultracentrifugation, approximately 1 mL of the upper layer containing CM was collected. TG concentration of CM emulsion was assessed using the TG enzymatic kit (Sigma Aldrich, Dorset, UK). TG concentration of the emulsion was adjusted to 100 mg/dL by diluting with PBS of 1.006 g/mL density. The CM emulsion was stored at 4 °C until the association assay (˂24 h).
The association of the compounds with artificial lipid particle emulsion and human CM was assessed using previously reported methodology with minor modifications. Briefly, 1 mL of artificial lipid particle or CM emulsions (TG concentration 100 mg/dL) was used for the association assay. The emulsion was spiked with stock solutions of tested compounds (in acetonitrile) to give a final concentration of 1.755 μM. The reaction mixtures were incubated at 37 °C for 1 h with magnetic stirring at 300 rpm. Following the incubation, density gradient ultracentrifugation was applied as described above to isolate the artificial lipid particles or CM associated with the tested compounds from the rest of the experimental medium. All experiments were conducted in quintuplicates or above.

[1] = Prodrug conversion assay in postprandial rat lymph; assay type: in vitro ADME; details: CM-rich postprandial rat lymph, ex vivo; relative to rat plasma
Description: The prodrugs were tested for their stability and conversion into their corresponding active drug using fasted state simulated intestinal fluid (FaSSIF) with added esterase enzyme activity (20 IU/mL), rat plasma, and postprandial rat lymph. The FaSSIF was prepared as previously described in the literature. The medium was pre-heated to 37 °C prior to the assay for 5 min. The experiment was initiated by spiking stock solutions of prodrugs to give a final concentration of 10 μM of the prodrugs in the medium. When the stability of the artificial emulsion-associated prodrugs was tested in plasma, the association of compounds with artificial emulsion was performed prior to stability experiments and the concentrations of the compounds in the associated emulsion were measured. The emulsion was then spiked to give a concentration of 10 μM of the prodrugs in plasma. The reaction mixtures were incubated at 37 °C and shaken at 200 rpm on a temperature-controlled orbital shaker (Thermo Scientific MaxQ4000, Waltham, MA, USA) for 4 h. Samples were withdrawn at pre-determined time points, and the reaction was terminated by addition of acetonitrile. The samples were then subjected to sample preparation and analysis as described below. […] Half-life of active drug release (t1/2) was calculated by the following equation: t1/2 = −0.693/k. […]

[2] = Biodistribution to mesenteric lymph nodes (MLN) and lymph following oral administration in rats; assay type: in vivo; details: dose equivalent to 10 mg/kg BEX, rat; for Kp: male, Sprague Dawley, intact prodrug
Description: The protocols for pharmacokinetic and biodistribution experiments in this study were reviewed and approved by the University of Nottingham Ethical Review Committee in accordance with the Animals [Scientific Procedures] Act 1986. Male Sprague Dawley rats (Charles River Laboratories, UK) weighing 350–380 g were used. The animals were housed in the Bio Support Unit, University of Nottingham. Continuous lymph collection was performed according to a protocol approved by the Institutional Animal Care and Use Committee at Rutgers, The State University of New Jersey. Male Sprague Dawley rats (Envigo, Inc., NJ, USA) weighing 300–350 g were used for the continuous lymph collection. Animals were allowed free access to food and water and were acclimatised for at least 6 days prior to any procedures at both institutions in a controlled-temperature environment with 12 h light/dark cycles.
Formulations were prepared as described in the above pharmacokinetic study and were delivered by an oral gavage. Animals were euthanised at pre-determined time points. Blood was collected from the posterior vena cava and lymph samples were taken from the mesenteric lymph duct. MLNs were dissected and collected as previously described. The MLNs were isolated from surrounding tissue with care not to compromise the integrity of the lymph nodes. The MLNs were homogenised (POLYTRON® PT 10–35 GT, Kinematica AG, Luzern, Switzerland) with 10 mg/mL NaF in water (1,2, w/v) on an ice bath prior to sample preparation for HPLC analysis.
A combination of protein precipitation and liquid-liquid extraction was applied to samples prior to HPLC injection. To 100 μL sample, 300 μL of acetonitrile was added for protein precipitation and then 300 μL of pH modifier was added when necessary (Supplementary Material Table S2). […] The organic layer was separated and evaporated under N2 gas. Reconstitution solvent (100 μL) was used as detailed in Supplementary Material Table S2 and 40 μL was injected into the HPLC-UV system. […] Therefore, storage and preparation of all samples were performed within the time frame and conditions of confirmed stability.
The HPLC-UV system consisting of a separation module (Waters Alliance 2695) equipped with a UV detector (Waters 996) was used for analysis. Samples in the autosampler were maintained at 4 °C and the column at 40 °C. The stationary and mobile phases were used as specified in Supplementary Material Table S2. BEX and its prodrugs were detected at 259 nm and RA and its prodrugs at 357 nm.

Which “association with human chylomicrons (CM)” value (human chylomicrons (CM)) does the source give for `C=C(c1ccc(C(=O)OCC)cc1)c1cc2c(cc1C)C(C)(C)CCC2(C)C` [prodrug 2] here?
Its value is “equally high affinity to CM”.

What about the “half-life of active drug release in postprandial lymph” value [1] of the same molecule?
Its value is “prolonged”.

And the “concentrations of BEX in intestinal lymphatics (MLNs, lymph) relative to plasma” value ([2]; BEX analyte, in words)?
Its value is “comparable between the three matrices”.

What about the Kp ([2]; mesenteric lymph / plasma, read-out: concentration of prodrug in lymph compared to plasma) of the same molecule?
The Kp was 41.

What about the Kp ([2]; mesenteric lymph nodes (MLN) / plasma, read-out: concentration of prodrug in MLNs compared to plasma) of the same molecule?
Its Kp is 6.
